Converted amounts (≈) assume the structure as drawn.
Experiments:
[1] = test system: Acinetobacter calcoaceticus Ac 54; assay: MIC, Experiment 1; type: cell-based; conditions: AC54, A. calcoaceticus Ac 54, Gram -, read-out: Min. inhib. concentr. (MIC)
Experimental: (§1) The compounds of the present invention (B, E, G, H, M, N, O, P and Q) were each dissolved in dimethylsulfoxide to prepare a solution of 5000 μg/ml in concentration. The compounds of the present invention (I, J and K) and the known compound (Y) were each dissolved in sterilized distilled water to prepare a solution of 5000 μg/ml in concentration. Each solution was diluted with sterilized distilled water to prepare a standard solution with a concentration of each test compound: 1000 μg/ml. The test was carried out by a method as appointed by Japan Society of Chemotherapy [cf. Chemotherapy, 29, 76-79 (1981), TOKYO].
(§2) As to Streptococcus pneumoniae and Streptococcus pyogenes, Brain heart infusion broth (manufactured by DIFCO) was used as the medium for the preculture thereof, and a heart infusion agar medium containing 5% defibrinated horse blood (manufactured by Nissui Seiyaku K. K., Japan) was used as the medium for the measurement of minimum inhibitory concentration (MIC). As to other microorganisms, a sensitivity test broth (manufactured by Nissui Seiyaku K. K.) was used as the medium for the preculture thereof, and a sensitivity test agar medium (manufactured by Nissui Seiyaku K. K.) was used as the medium for the measurement of MIC.

Bacillus cereus IAM 1029 = assay: MIC, Experiment 1; type: cell-based; conditions: IAM1029, B. cereus IAM 1029, Gram +, read-out: Min. inhib. concentr. (MIC)
Experimental: as §1, §2

[2] = test system: Bacillus subtilis ATCC 6633; assay: MIC, Experiment 1; type: cell-based; conditions: ATCC6633, B. subtilis ATCC 6633, Gram +, read-out: Min. inhib. concentr. (MIC)
Experimental: as §1, §2

Enterobacter cloacae 963 = assay: MIC, Experiment 1; type: cell-based; conditions: E. cloacae 963, Gram -, read-out: Min. inhib. concentr. (MIC)
Experimental: as §1, §2

[3] = test system: Escherichia coli NIHJ JC-2; assay: MIC, Experiment 1; type: cell-based; conditions: NIHJJC2, E. coli NIHJ JC-2, Gram -, read-out: Min. inhib. concentr. (MIC)
Experimental: as §1, §2

[4] = test system: Klebsiella pneumoniae PCI-602; assay: MIC, Experiment 1; type: cell-based; conditions: PCI602, K. pneumoniae PCI-602, Gram -, read-out: Min. inhib. concentr. (MIC)
Experimental: as §1, §2

[5] = test system: Micrococcus luteus ATCC 9341; assay: MIC, Experiment 1; type: cell-based; conditions: ATCC9341, M. luteus ATCC 9341, Gram +, read-out: Min. inhib. concentr. (MIC)
Experimental: as §1, §2

[6] = test system: Proteus mirabilis IFO 3849; assay: MIC, Experiment 1; type: cell-based; conditions: IFO3849, P. mirabilis IFO 3849, Gram -, read-out: Min. inhib. concentr. (MIC)
Experimental: as §1, §2

[7] = test system: Pseudomonas aeruginosa NCTC 10490; assay: MIC, Experiment 1; type: cell-based; conditions: NCTC10490, P. aeruginosa NCTC 10490, Gram -, read-out: Min. inhib. concentr. (MIC)
Experimental: as §1, §2

[8] = test system: Staphylococcus aureus ATCC 9144; assay: MIC, Experiment 1; type: cell-based; conditions: ATCC9144, S. aureus ATCC 9144, Gram +, read-out: Min. inhib. concentr. (MIC)
Experimental: as §1, §2

[9] = test system: Staphylococcus aureus Cowan I (IID 975); assay: MIC, Experiment 1; type: cell-based; conditions: IID975, S. aureus Cowan I (IID 975), Gram +, read-out: Min. inhib. concentr. (MIC)
Experimental: as §1, §2

[10] = test system: Staphylococcus aureus FDA 209P JC-1; assay: MIC, Experiment 1; type: cell-based; conditions: FDA209P, S. aureus FDA 209P JC-1, Gram +, read-out: Min. inhib. concentr. (MIC)
Experimental: as §1, §2

[11] = test system: Staphylococcus aureus FDA 243; assay: MIC, Experiment 1; type: cell-based; conditions: FDA243, S. aureus FDA 243, Gram +, read-out: Min. inhib. concentr. (MIC)
Experimental: as §1, §2

[12] = test system: Staphylococcus aureus IID 803; assay: MIC, Experiment 1; type: cell-based; conditions: IID803, S. aureus IID 803, Gram +, read-out: Min. inhib. concentr. (MIC)
Experimental: as §1, §2

[13] = test system: Staphylococcus aureus Terajima (IID 670); assay: MIC, Experiment 1; type: cell-based; conditions: IID670, S. aureus Terajima (IID 670), Gram +, read-out: Min. inhib. concentr. (MIC)
Experimental: as §1, §2

[14] = test system: clinically isolated Enterococcus faecalis; assay: In vitro antibacterial activity against clinical isolates, Experiment 2; type: cell-based
Experimental: (§3) The above solutions were then diluted with sterilized distilled water to prepare a standard solution with a concentration of the test compound: 1000 μg/ml each.
(§4) For the preculture of each microorganism, there was used as the medium a sensitivity test broth (manufactured by Nissui Seiyaku K. K., Japan), and for the measurement of MIC, there was used a sensitivity test agar medium (manufactured by Nissui Seiyaku K. K.).
(§5) The clinically isolates used above were isolated from Nov. 1988 to Jun. 1989 and were obtained from Research Section, Tokyo Clinical Research Center.

[15] = test system: clinically isolated Enterococcus faecium; assay: as above; type: cell-based
Experimental: as §3, §4, §5

[16] = test system: clinically isolated Staphylococcus aureus; assay: as above; type: cell-based
Experimental: as §3, §4, §5

[17] = test system: clinically isolated Staphylococcus epidermidis; assay: as above; type: cell-based; conditions: Staphylococcus epidermidis
Experimental: as §3, §4, §5

[18] = test system: Staphylococcus aureus IID 803; assay: Effect on treatment of general infectious disease (systemic infection in mice), Experiment 3; type: in vivo, Staphylococcus aureus; ddY male mice; conditions: Staphylococcus aureus, IID803, 168 h; oral, 1 h after i.p. infection, mice, survival after one week, average of several tests; read-out: 50% effective dose (ED50)
Experimental: Staphylococcus aureus IID 803
The test microorganism was subjected to standing culture in Brain heart infusion broth (manufactured by DIFCO) at 37° C. for 16 to 18 hours. The culture was then diluted with PBS (Dulbecco's phosphate buffered saline) to adjust the concentration of bacteria to 4×10^7 -8×10^7 CFU/ml. The mixture was mixed with an equivalent amount of 10% (w/v) Mucin (BACTO MUCIN BACTERIOLOGICAL, manufactured by Difco Co.) to prepare a bacterial suspension. The thus prepared bacterial suspension (0.5 ml each) was intraperitoneally inoculated to ddY male mice (5 weeks age, weighing 24-27 g, 5 mice in each group), to infect the animals, by which systemic infectious model was prepared.
The mice were daily observed for one week, and from the survival number of mice after one week, the 50% effective dose (ED50) was calculated by Weil method. This test was repeated several times and the average of ED50 was calculated.

## CC1COc2c(N3CCN(C)CC3)c(F)cc3c(=O)c(C(=O)O)cn1c23 (stereo not drawn) [Compound (X), 9-Fluoro-3-methyl-10-(4-methyl-1-piperazinyl)-7-oxo-2,3-dihydro-7H-pyrido[1,2,3-de][1,4]benzoxazine-6-carboxylic acid, reference compound]
[1]
  MIC: 0.39 µg/mL (≈ 1.08 µM)
Bacillus cereus IAM 1029
  MIC: 0.39 µg/mL (≈ 1.08 µM)
[2]
  MIC: 0.1 µg/mL (≈ 0.277 µM)
Enterobacter cloacae 963
  MIC: 0.2 µg/mL (≈ 0.553 µM)
[3]
  MIC: 0.1 µg/mL (≈ 0.277 µM)
[4]
  MIC: 0.05 µg/mL (≈ 0.138 µM)
[5]
  MIC: 3.13 µg/mL (≈ 8.66 µM)
[6]
  MIC: 0.39 µg/mL (≈ 1.08 µM)
[7]
  MIC: 1.56 µg/mL (≈ 4.32 µM)
[8]
  MIC: 0.39 µg/mL (≈ 1.08 µM)
[9]
  MIC: 0.39 µg/mL (≈ 1.08 µM)
[10]
  MIC: 0.39 µg/mL (≈ 1.08 µM)
[11]
  MIC: 0.39 µg/mL (≈ 1.08 µM)
[12]
  MIC: 0.39 µg/mL (≈ 1.08 µM)
[13]
  MIC: 0.39 µg/mL (≈ 1.08 µM)
[14]
  MIC50: 3.13 µg/mL (≈ 8.66 µM)
[14]; 25 clinical strains E. faecalis
  MIC: 1.56 to 100 µg/mL (≈ 4.32 to 277 µM)
[14]; 25 clinical strains E. faecalis, 90% of strains, read-out: MIC90
  MIC90: 50 µg/mL (≈ 138 µM)
[15]
  MIC90: 100 µg/mL (≈ 277 µM)
[15]; 25 clinical strains E. faecium, 50% of strains, read-out: MIC50
  MIC50: 25 µg/mL (≈ 69.2 µM)
[16]
  MIC50: 1.56 µg/mL (≈ 4.32 µM)
  MIC90: 25 µg/mL (≈ 69.2 µM)
[16]; 25 clinical strains S. aureus incl. 16 methicillin resistant
  MIC: 0.39 to 50 µg/mL (≈ 1.08 to 138 µM)
[17]
  MIC90: 25 µg/mL (≈ 69.2 µM)
[17]; 25 clinical strains S. epidermidis
  MIC: 0.2 to 50 µg/mL (≈ 0.553 to 138 µM)
[17]; 25 clinical strains S. epidermidis, 50% of strains, read-out: MIC50
  MIC50: 0.78 µg/mL (≈ 2.16 µM)
[18]
  ED50: 11.4 mg/kg
